One test deals with MV411 cell line. Put plainly: Cell viability assay ([…]-GLO), MV411. It counts as cell-based. The settings on record: for IC50: Homo sapiens, MV4-11, MV411 (ITD-FLT3+), 72 hours treatment; for FLT3-ITD+ Selectivity (K562/MV411): ratio of K562 to MV411 IC50. Here is the method: (§1) Cell viability in the presence of varying concentrations of the above listed compounds at different time points was used to assess cytotoxicity and the effect of the compounds on cell proliferation.
(§2) Cell viability was measured by the […]-GlO® cell viability assay from Promega (Madison, Wis.). The […]-GlO® Luminescent Cell Viability Assay is a homogeneous method to determine the number of viable cells in culture based on quantitation of the ATP present, which signals the presence of metabolically active cells. Following treatment, […]-GlO® is added to treatment wells and incubated at 37° C. luminescence values were measured at using a Molecular Devices Spectramax microplate reader.
(§3) Cells were grown to 70% confluency, trypsinized, counted, and seeded in 96 well flat-bottom plates at a final concentration of 2.5×10^3-5×10^3 cells/well (Day 0). Cells were allowed to incubate in growth media for 24 hours. Treatment with the test agents or standard agents began on Day 1 and continued for 72 hours. At the 72-hour time point, treatment containing media was removed.
(§4) For single agent and combination studies, data from each experiment was collected and expressed as % Cell Growth using the following calculation: % Cell Growth=(ftest/fvehicle)×100 Where ftest is the luminescence of the tested sample, and fvehicle is the luminescence of the vehicle in which the drug is dissolved. Dose response graphs and IC50 values were generated using Prism 6 software (GraphPad) using the following equation: Y=(Top−Bottom/(1+10^((logIC50−X)−HillSlope)) Where X is the logarithm of the concentration and Y is the response. Y starts at the Bottom and goes to the Top with a sigmoid shape.
The experiments also evaluated the selectivity of the compounds for inhibiting growth of cancer cells carrying a mutation in the Flt3 gene. The MV411 cell line expresses the mutant allele of Flt3 with internal tandem duplications (ITD) of the gene. See Quentmeier et al., “FLT3 Mutations in Acute Myeloid Leukemia Cell Lines,” Leukemia 17(1), 2003, 120-124. […] See Grafone et al., “Monitoring of FLT3 Phosphorylation Status and Its Response to Drugs By Flow Cytometry in AML Blast Cells,” Hematol Oncol. 26(3), 2008, 159-166. Patients with ITD-FLT3^+ acute myeloid leukemia (AML) experience an extremely poor prognosis.

Another test has as its target ROCK1 (Homo sapiens (Human), UniProt Q13464). Put plainly: ROCK1 kinase inhibition assay (LABCHIP peptide phosphorylation). Format: biochemical. The settings on record: 5 μM ATP, 3 nM ROCK1, 3 hours at 25° C. Here is the method:
(§5) The peptide is >98% purity by Capillary Electrophoresis. The peptide is phosphorylated by the protein kinase ROCK1 or ROCK2. The ROCK1 or ROCK2 enzyme, substrate, and cofactors (ATP and Mg^2+) are combined in a well of a microtiter plate and incubated for 3 hours at 25° C. At the end of the incubation, the reaction is quenched by the addition of an EDTA-containing buffer. The substrate and product are separated and quantified electrophoretically using the microfluidic-based LABCHIP® 3000 Drug Discovery System from Caliper Life Sciences (Hopkinton, Mass.).
(§6) Substrate and product peptides present in each sample are separated electrophoretically using the LABCHIP® 3000 capillary electrophoresis instrument. […] Change in the relative fluorescence intensity of the substrate and product peaks is the parameter measured reflecting enzyme activity. Capillary electrophoregramms (RDA acquisition files) are analyzed using HTS Well Analyzer software (Caliper Life Sciences, Hopkinton, Mass.). The kinase activity in each sample is determined as the product to sum ratio (PSR): P/(S+P), where P is the peak height of the product peptide and S is the peak height of the substrate peptide. For each compound, enzyme activity is measured at various concentrations (12 concentrations of compound spaced by 3× dilution intervals). Negative control samples (0%-inhibition in the absence of inhibitor) and positive control samples (100%-inhibition in the presence of 20 mM EDTA) are assembled in replicates of four and are used to calculate %-inhibition values for each compound at each concentration. Percent inhibition (Pinh) is determined using the following equation: Pinh=(PSR0%−PSRinh)/(PSR0%−PSR100%)*100 where PSRinh is the product sum ratio in the presence of inhibitor, PSR/% is the average product sum ratio in the absence of inhibitor, and PSR100% is the average product sum ratio in 100%-inhibition control samples. The IC50 values of inhibitors are determined by fitting the inhibition curves (Pinh versus inhibitor concentration) by 4 parameter sigmoidal dose-response model using XLfit 4 software (IBDS).

In the next test the test system is K562 cell line. Description: Cell viability assay ([…]-GLO), K562. It counts as cell-based. The settings on record: Homo sapiens; K562 (does not express ITD-FLT3), 72 hours treatment. The method, then:
as §1, §2
as §3, with “removed. Viable cell numbers were quantified by the […]-GLO® cell viability assay as described above. Results from these studies were used to calculate an IC50 value (concentration of drug that inhibits cell growth by 50 percent of control) for each compound.” for “removed.”
as §4, with “shape. […]” for “shape.”

For another test, the target named is ROCK2 (Homo sapiens (Human), UniProt O75116). Put plainly: ROCK2 kinase inhibition assay (LABCHIP peptide phosphorylation). Format: biochemical. The settings on record: 7 μM ATP, 2.5 nM ROCK2, 3 hours at 25° C. The method, then:
as §5, §6

Molecules are shown by their SMILES.

ROCK2, sequence (O75116 whole entry): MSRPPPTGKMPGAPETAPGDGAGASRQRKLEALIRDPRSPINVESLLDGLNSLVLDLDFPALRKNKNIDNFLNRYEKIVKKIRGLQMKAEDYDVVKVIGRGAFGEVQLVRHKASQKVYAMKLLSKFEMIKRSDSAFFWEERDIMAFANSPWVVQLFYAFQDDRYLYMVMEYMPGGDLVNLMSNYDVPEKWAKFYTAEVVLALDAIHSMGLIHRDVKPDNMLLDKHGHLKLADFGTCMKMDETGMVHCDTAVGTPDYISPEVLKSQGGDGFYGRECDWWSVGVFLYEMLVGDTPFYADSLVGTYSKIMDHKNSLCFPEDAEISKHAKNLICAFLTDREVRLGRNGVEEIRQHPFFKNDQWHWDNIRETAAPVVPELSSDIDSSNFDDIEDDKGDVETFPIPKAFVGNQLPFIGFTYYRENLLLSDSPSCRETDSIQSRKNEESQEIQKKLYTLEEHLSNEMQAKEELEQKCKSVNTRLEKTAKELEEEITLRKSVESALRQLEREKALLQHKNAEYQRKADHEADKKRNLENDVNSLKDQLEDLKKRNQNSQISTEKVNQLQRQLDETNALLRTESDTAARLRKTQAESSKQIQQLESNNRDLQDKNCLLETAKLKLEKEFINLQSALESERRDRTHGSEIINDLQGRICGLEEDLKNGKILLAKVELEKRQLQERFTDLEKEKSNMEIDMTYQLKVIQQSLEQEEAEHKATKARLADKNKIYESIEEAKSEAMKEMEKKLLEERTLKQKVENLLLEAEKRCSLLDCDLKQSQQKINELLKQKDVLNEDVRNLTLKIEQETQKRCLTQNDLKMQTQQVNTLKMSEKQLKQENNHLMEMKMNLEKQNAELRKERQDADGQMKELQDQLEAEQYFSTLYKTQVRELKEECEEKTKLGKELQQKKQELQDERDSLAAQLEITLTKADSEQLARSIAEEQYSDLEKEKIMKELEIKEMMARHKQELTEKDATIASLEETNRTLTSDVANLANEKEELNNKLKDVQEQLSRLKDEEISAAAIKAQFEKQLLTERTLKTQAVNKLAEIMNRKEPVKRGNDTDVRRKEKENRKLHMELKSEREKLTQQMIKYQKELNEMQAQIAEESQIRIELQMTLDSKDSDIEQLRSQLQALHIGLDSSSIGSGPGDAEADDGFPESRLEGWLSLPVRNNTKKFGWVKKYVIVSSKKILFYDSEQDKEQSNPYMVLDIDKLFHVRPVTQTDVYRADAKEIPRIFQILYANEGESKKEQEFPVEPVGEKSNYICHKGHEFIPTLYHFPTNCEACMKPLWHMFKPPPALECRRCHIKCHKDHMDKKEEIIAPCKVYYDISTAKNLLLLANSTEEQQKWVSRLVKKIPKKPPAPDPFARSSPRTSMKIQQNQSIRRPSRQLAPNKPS
ROCK1, sequence (Q13464 whole entry): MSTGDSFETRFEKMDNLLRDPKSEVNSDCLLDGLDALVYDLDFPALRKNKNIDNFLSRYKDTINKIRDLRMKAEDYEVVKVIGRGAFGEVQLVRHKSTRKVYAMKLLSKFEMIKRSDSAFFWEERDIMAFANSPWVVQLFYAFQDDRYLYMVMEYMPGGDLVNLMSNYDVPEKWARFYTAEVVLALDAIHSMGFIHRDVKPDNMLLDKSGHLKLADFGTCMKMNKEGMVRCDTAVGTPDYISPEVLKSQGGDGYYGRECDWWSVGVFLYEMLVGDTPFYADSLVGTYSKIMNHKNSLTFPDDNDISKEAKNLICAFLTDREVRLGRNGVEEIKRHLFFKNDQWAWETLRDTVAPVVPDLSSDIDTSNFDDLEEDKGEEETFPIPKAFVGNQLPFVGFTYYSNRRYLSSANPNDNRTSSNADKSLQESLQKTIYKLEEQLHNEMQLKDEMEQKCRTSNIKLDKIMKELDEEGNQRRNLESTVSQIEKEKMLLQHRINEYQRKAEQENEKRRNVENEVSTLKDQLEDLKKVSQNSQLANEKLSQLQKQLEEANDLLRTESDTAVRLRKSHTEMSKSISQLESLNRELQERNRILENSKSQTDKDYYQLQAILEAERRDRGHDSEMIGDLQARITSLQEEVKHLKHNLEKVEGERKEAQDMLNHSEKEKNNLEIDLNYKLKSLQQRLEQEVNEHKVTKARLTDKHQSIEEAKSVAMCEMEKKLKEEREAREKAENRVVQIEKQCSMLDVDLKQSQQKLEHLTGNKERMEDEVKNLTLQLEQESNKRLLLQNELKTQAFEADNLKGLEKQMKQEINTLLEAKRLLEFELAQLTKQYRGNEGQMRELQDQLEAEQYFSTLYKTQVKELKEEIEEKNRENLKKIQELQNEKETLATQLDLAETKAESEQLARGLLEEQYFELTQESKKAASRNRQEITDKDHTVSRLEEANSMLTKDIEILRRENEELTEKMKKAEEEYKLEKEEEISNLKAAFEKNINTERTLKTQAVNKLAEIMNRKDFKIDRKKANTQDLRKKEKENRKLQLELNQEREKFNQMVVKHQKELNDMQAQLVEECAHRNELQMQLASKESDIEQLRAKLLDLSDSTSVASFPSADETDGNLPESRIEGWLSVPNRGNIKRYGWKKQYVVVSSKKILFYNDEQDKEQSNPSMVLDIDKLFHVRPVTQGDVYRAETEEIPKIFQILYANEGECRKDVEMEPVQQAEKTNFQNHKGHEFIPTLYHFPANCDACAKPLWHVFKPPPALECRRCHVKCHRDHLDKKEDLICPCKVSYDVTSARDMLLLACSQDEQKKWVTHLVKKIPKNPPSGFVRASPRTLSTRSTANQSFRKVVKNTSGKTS

For the compound `COc1cccc(CNC(=O)Nc2cc(-c3ccncc3)[nH]n2)c1` [Compound 5], the IC50 (as a rule, the concentration needed to halve the response being measured) with MV411 cell line came out at 10.2 µM; against ROCK1 it was 0.073 µM; in the test with K562 cell line, 43.6 µM; against ROCK2, 0.0161 µM. Further, in the test on MV411 cell line, the “FLT3-ITD+ Selectivity (K562/MV411)” value came to 4.
Regarding `Cc1c[nH]c2nccc(Oc3c(F)cc(Nc4cc(Cl)nc(N)n4)cc3F)c12` [Compound A, reference compound], the IC50 with MV411 cell line turned out to be 0.7 µM; in the test with K562 cell line it was 0.8 µM.
`O=C(NCc1cccc(O)c1)Nc1cc(-c2ccncc2)[nH]n1` [Compound 3]: in the test on MV411 cell line, the IC50 came to 43.7 µM and the “FLT3-ITD+ Selectivity (K562/MV411)” value was >2. In the test with K562 cell line, the IC50 was > 100 µM.
Turning to `COc1cccc([C@@H](C)NC(=O)Nc2cc(-c3ccncc3)n[nH]2)c1` [Compound 52], the IC50 in the test on MV411 cell line was 11.2 µM; against ROCK1, 0.034 µM; in the test with K562 cell line, > 100 µM; on ROCK2, 0.0087 µM. For the same compound, in the test on MV411 cell line, the “FLT3-ITD+ Selectivity (K562/MV411)” value is on record as >9.
For `COc1cccc(CN(C)C(=O)Nc2cc(-c3ccncc3)[nH]n2)c1` [Compound 7], the IC50 is 7.6 µM in the test with MV411 cell line, 0.102 µM against ROCK1, 89.1 µM with K562 cell line and 0.0229 µM on ROCK2. Besides, in the test on MV411 cell line, the “FLT3-ITD+ Selectivity (K562/MV411)” value is given as 12.
With `COc1cccc(CN(CCO)C(=O)Nc2cc(-c3ccncc3)[nH]n2)c1` [Compound 9], the IC50 in the test on MV411 cell line is 39.8 µM; against ROCK1, 0.237 µM; with K562 cell line it was 97.2 µM; against ROCK2, 0.0391 µM. The “FLT3-ITD+ Selectivity (K562/MV411)” value with MV411 cell line was 2.
For `O=C(N[C@H](CO)c1cccc(F)c1)c1cc(-c2ccncc2)[nH]n1` [Compound 1], in that order: 67.6 µM, 0.207 µM, > 100 µM, 0.098 µM and >1.
`COc1cccc([C@@H](C)NC(=O)N(C)c2cc(-c3ccncc3)n[nH]2)c1` [Compound 53]: in the test with MV411 cell line, the IC50 was determined as 93.3 µM and the “FLT3-ITD+ Selectivity (K562/MV411)” value is 1. For the same compound, in the test with K562 cell line, the IC50 stood at 64.6 µM.
In the case of `COc1cccc(CNC(=O)Nc2cc(-c3ccncc3)[nH]n2)c1F` [Compound 48], the half-inhibitory concentration (IC50) against ROCK1 is 6.4 µM; against ROCK2, 1.87 µM.
Consider `COc1cc(CNC(=O)Nc2cc(-c3ccncc3)[nH]n2)ccc1F` [Compound 47], for which the IC50 in the test on MV411 cell line was 7.8 µM; in the test with K562 cell line, 17.8 µM. The “FLT3-ITD+ Selectivity (K562/MV411)” value in the test with MV411 cell line was determined as 2.
As for `COc1cc(F)cc(CNC(=O)Nc2cc(-c3ccncc3)[nH]n2)c1` [Compound 49], in the test on MV411 cell line, the IC50 worked out at 7.8 µM and the “FLT3-ITD+ Selectivity (K562/MV411)” value was 2. Besides, the IC50 in the test with K562 cell line turned out to be 17.8 µM.
As for `COc1ccc(OC)c(CNC(=O)Nc2cc(-c3ccncc3)n[nH]2)c1` [Compound 54], the IC50 is 12.6 µM in the test on MV411 cell line and > 100 µM with K562 cell line. Besides, the “FLT3-ITD+ Selectivity (K562/MV411)” value in the test on MV411 cell line was >8.
`COc1cccc(CN(CCN(C)C)C(=O)Nc2cc(-c3ccncc3)[nH]n2)c1` [Compound 11]: the IC50 in the test on MV411 cell line was 14.5 µM; on ROCK1 it was 0.0636 µM; with K562 cell line it was > 100 µM; on ROCK2 it was 0.0221 µM. Besides, the “FLT3-ITD+ Selectivity (K562/MV411)” value in the test on MV411 cell line was >7.
`COCCOc1cccc(CNC(=O)Nc2cc(-c3ccncc3)[nH]n2)c1` [Compound 51]: the IC50 with MV411 cell line was 17 µM; in the test on K562 cell line, > 100 µM. For the same compound, the “FLT3-ITD+ Selectivity (K562/MV411)” value with MV411 cell line is >6.
Consider `COc1cccc(CNC(=O)c2cc3ccc(-c4cn[nH]c4)nc3s2)c1` [Compound 40], for which the IC50 with MV411 cell line is 7.1 µM; against ROCK1, 0.0651 µM; with K562 cell line, > 100 µM; on ROCK2 it was 0.0174 µM. Further, the “FLT3-ITD+ Selectivity (K562/MV411)” value in the test with MV411 cell line was >14.
For `COc1ccc(F)c(CNC(=O)Nc2cc(-c3ccncc3)[nH]n2)c1` [Compound 50], in that order: 7.8 µM, 1.01 µM, > 100 µM, 0.239 µM and >13.
For `COc1cccc(CNC(=O)Nc2cnn(-c3ccncc3)c2)c1` [Compound 25], the IC50 with MV411 cell line turned out to be 34 µM; at ROCK1, 0.13 µM; with K562 cell line, 85 µM; against ROCK2, 0.0287 µM. Further, the “FLT3-ITD+ Selectivity (K562/MV411)” value with MV411 cell line is listed as 3.

(Values after US10392402B2, “Heterocyclic compounds as kinase inhibitors” (TRANSLATIONAL DRUG DEVELOPMENT LLC, priority 2015, dated 2019).)
